According to the supplement of paper PMC13380429:
± gives the standard deviation of the averaged measurements.

What was measured:
Settings in all cases: 72 h
Caco-2 [1] = experiment: cell viability relative to DMSO; higher = less toxic
Calu-3 [2] = experiment: as above
HepG2 [3] = experiment: as above
U2OS [4] = experiment: as above
Vero E6 [5] = experiment: as above
Caco-2 [6] = experiment: relative viability EC50 (midpoint between 100% and the lowest measured viability); higher = less toxic
Calu-3 [7] = experiment: as above
HepG2 [8] = experiment: as above
U2OS [9] = experiment: as above
Vero E6 [10] = experiment: as above
Caco-2 [11] = experiment: drug sensitivity score (DSS) for viability; higher = more toxic; extreme values may be limits of the assay
Calu-3 [12] = experiment: as above
HepG2 [13] = experiment: as above
U2OS [14] = experiment: as above
Vero E6 [15] = experiment: as above

| Structure (SMILES) | cell viability (Caco-2 [1]; 1 nM) [%] | cell viability (Caco-2 [1]; 10 nM) [%] | cell viability (Caco-2 [1]; 100 nM) [%] | cell viability (Caco-2 [1]; 1000 nM) [%] | cell viability (Caco-2 [1]; 10000 nM) [%] | cell viability (Calu-3 [2]; 1 nM) [%] | cell viability (Calu-3 [2]; 10 nM) [%] | cell viability (Calu-3 [2]; 100 nM) [%] | cell viability (Calu-3 [2]; 1000 nM) [%] | cell viability (Calu-3 [2]; 10000 nM) [%] | cell viability (HepG2 [3]; 1 nM) [%] | cell viability (HepG2 [3]; 10 nM) [%] | cell viability (HepG2 [3]; 100 nM) [%] | cell viability (HepG2 [3]; 1000 nM) [%] | cell viability (HepG2 [3]; 10000 nM) [%] | cell viability (U2OS [4]; 1 nM) [%] | cell viability (U2OS [4]; 10 nM) [%] | cell viability (U2OS [4]; 100 nM) [%] | cell viability (U2OS [4]; 1000 nM) [%] | cell viability (U2OS [4]; 10000 nM) [%] | cell viability (Vero E6 [5]; 1 nM) [%] | cell viability (Vero E6 [5]; 10 nM) [%] | cell viability (Vero E6 [5]; 100 nM) [%] | cell viability (Vero E6 [5]; 1000 nM) [%] | cell viability (Vero E6 [5]; 10000 nM) [%] | relative viability EC50 (Caco-2 [6]) [µM] | relative viability EC50 (Calu-3 [7]) [µM] | relative viability EC50 (HepG2 [8]) [µM] | relative viability EC50 (U2OS [9]) [µM] | relative viability EC50 (Vero E6 [10]) [µM] | drug sensitivity score (Caco-2 [11]) | drug sensitivity score (Calu-3 [12]) | drug sensitivity score (HepG2 [13]) | drug sensitivity score (U2OS [14]) | drug sensitivity score (Vero E6 [15]) |
| --- | --- | --- | --- | --- | --- | --- | --- | --- | --- | --- | --- | --- | --- | --- | --- | --- | --- | --- | --- | --- | --- | --- | --- | --- | --- | --- | --- | --- | --- | --- | --- | --- | --- | --- | --- |
| CCOC(=O)[N-]c1c[n+](N2CCOCC2)no1 [molsidomine] | 94.4 | 96.5 | 106 | 95.1 | 104 | 95.8 | 88.6 | 91.6 | 91.8 | 89.4 | 87.6 | 95.4 | 97.8 | 106 | 107 | 99.3 | 97.6 | 104 | 99.8 | 102 | 92.1 | 99.7 | 95.5 | 96.4 | 109 | > 10 | > 10 | > 10 | > 10 | > 10 | 0 | 0.1 | 0 | 0 | 0 |
| CC(C)NCC(O)COc1cccc2ccccc12 (configuration not stated) [propranolol] | 101 ± 2.7 | 96 ± 3.8 | 101 ± 3 | 95 ± 9.6 | 100 ± 4.5 | 95.3 ± 3.9 | 96.7 ± 2.8 | 99.4 ± 6 | 89.6 ± 5 | 92.9 ± 1.8 | 92.9 ± 6.3 | 101 ± 2.8 | 95.6 ± 7 | 102 ± 6 | 102 ± 1.6 | 96.1 ± 3.6 | 95.2 ± 2.7 | 97.2 ± 7.5 | 95.6 ± 2.3 | 96.5 ± 7.6 | 94.3 ± 3.7 | 98.95 ± 0.49 | 95.3 ± 4 | 95.1 ± 0.71 | 99.3 ± 3.2 | > 10 | > 10 | > 10 | > 10 | > 10 | 0 | 0.467 ± 0.81 | 0 | 0.0333 ± 0.058 | 0 |
| CC(C)C[C@H](NC(=O)[C@@H]1CCCN1)C(=O)NCC(N)=O [prolylleucylglycinamide] | 95 | 95.1 | 98.1 | 96 | 96.6 | 97.1 | 96.3 | 99.4 | 106 | 104 | 109 | 107 | 107 | 99.2 | 107 |  |  |  |  |  | 102 | 105 | 102 | 103 | 98.2 | > 10 | > 10 | > 10 |  | > 10 | 0 | 0 | 0 |  | 0 |
| C/C(=C\CNc1ncnc2[nH]cnc12)CO [zeatin] | 94.1 | 104 | 88.1 | 92.5 | 101 |  |  |  |  |  | 94.7 | 92.9 | 108 | 102 | 110 | 96.8 | 99.4 | 95.4 | 98.9 | 102 | 95.7 | 99.4 | 97 | 100 | 107 | > 10 |  | > 10 | > 10 | > 10 | 0 |  | 0 | 0 | 0 |
| O=c1[nH]cnc2ccccc12 [4-HQN] | 86.3 | 94.6 | 91 | 101 | 107 |  |  |  |  |  | 104 | 86.9 | 113 | 99.1 | 108 | 95.2 | 98.7 | 94.5 | 101 | 102 | 99.9 | 93.8 | 94.8 | 92.1 | 100 | > 10 |  | > 10 | > 10 | > 10 | 0 |  | 0 | 0 | 0 |
| CCNCc1cc(C(C)(C)C)c(O)c(C(C)(C)C)c1 | 103 | 97.8 | 96.1 | 98.2 | 99.8 |  |  |  |  |  | 99.1 | 99.7 | 99.6 | 98.4 | 105 | 102 | 103 | 98.5 | 101 | 96.5 | 101 | 104 | 96.7 | 97.2 | 105 | > 10 |  | > 10 | > 10 | > 10 | 0 |  | 0 | 0 | 0 |
| CCc1c(O)cc(O)c(C(=O)c2ccc(OCCN3CCOCC3)c(OC)c2)c1CC(=O)N(CCOC)CCOC [KW-2478] | 110 | 96.3 | 101 | 77.6 | 46.5 | 104 | 110 | 100 | 76.9 | 53.4 | 108 | 103 | 109 | 69.1 | 5.8 | 98.8 | 95.3 | 100 | 98.3 | 47.5 | 98.6 | 103 | 96.1 | 99.1 | 100 | 1.14 |  | 1.33 | 2.93 | > 10 | 5.9 | 5.4 | 9.6 | 3 | 0 |
| CN1CCCN=C1/C=C/c1cccs1 [pyrantel-pamoate] | 93.3 | 94.8 | 98.8 | 96 | 100 |  |  |  |  |  | 97.4 | 106 | 103 | 104 | 92.6 | 99.6 | 96.9 | 99.1 | 95.3 | 101 | 107 | 99.9 | 96.4 | 101 | 99.4 | > 10 |  | > 10 | > 10 | > 10 | 0 |  | 0 | 0 | 0 |
| COc1ccn2ncc(-c3nc4[nH]nc(NC(=O)c5ccc(F)cc5)c4cc3F)c2c1 [CW-008] | 99.1 | 92.5 | 91.2 | 89.6 | 87.7 | 109 | 107 | 113 | 97.8 | 97.2 | 109 | 102 | 95.2 | 101 | 93.1 |  |  |  |  |  | 93.6 | 98.5 | 99.4 | 97 | 89.1 | > 10 | > 10 | > 10 |  | > 10 | 0.6 | 0 | 0 |  | 0.1 |
| COc1ccc2[nH]c3c(-c4cccc5ccccc45)nccc3c2c1 [SP-141] | 91.8 | 103 | 99.2 | 60 | 39.5 | 98.7 | 106 | 105 | 67.4 | 67.2 | 102 | 101 | 95.9 | 47.8 | 42.8 | 110 | 109 | 106 | 53.9 | 21.3 | 95.5 | 101 | 97.8 | 39.1 | 29.2 | 0.741 |  | 0.332 | 0.873 | 0.453 | 8.1 | 5.3 | 10.2 | 9.9 | 11.5 |
| CCN(CC)CCNC(=O)c1cc(S(C)(=O)=O)ccc1OC [tiapride] | 104 | 93.5 | 95.9 | 100 | 101 | 97.5 | 89.2 | 101 | 106 | 100 | 102 | 103 | 94.2 | 103 | 97.5 |  |  |  |  |  | 99.9 | 100 | 103 | 99.5 | 104 | > 10 | > 10 | > 10 |  | > 10 | 0 | 0 | 0 |  | 0 |
| C[C@H](N)[C@H](O)c1ccc(O)c(O)c1 [levonordefrin] | 97.8 | 89.7 | 96.8 | 88.6 | 93.8 | 102 | 96.8 | 98 | 104 | 100 | 105 | 105 | 97 | 96.8 | 93.9 |  |  |  |  |  | 109 | 109 | 103 | 108 | 91.9 | > 10 | > 10 | > 10 |  | > 10 | 0 | 0 | 0 |  | 0 |
| C=CC(C)(O)CCC=C(C)C (configuration not stated) [linalool] | 110 | 99.2 | 99.2 | 93.7 | 99.2 |  |  |  |  |  | 95.5 | 102 | 96.5 | 100 | 95.2 | 103 | 95.7 | 97.4 | 95 | 97.9 | 101 | 104 | 96.3 | 102 | 98.7 | > 10 |  | > 10 | > 10 | > 10 | 0 |  | 0 | 0 | 0 |
| Cn1cnc([N+](=O)[O-])c1Sc1ncnc2[nH]cnc12 [azathioprine] | 110 | 86.8 | 93 | 92.7 | 92.9 | 94.8 | 93.6 | 93.1 | 94.4 | 98.7 | 95.2 | 89.7 | 93 | 75.1 | 20 | 104 | 97.9 | 96.2 | 71.9 | 78.9 | 94.2 | 96.6 | 94.8 | 96 | 82.7 | > 10 | > 10 | 1.46 |  | > 10 | 0 | 0 | 7.7 | 5.2 | 0.7 |
| CN1C(=O)N(c2cc(Cl)cc(Cl)c2)C(=O)[C@]12CN(Cc1cc(C(=O)O)cs1)C[C@H]2c1ccc(C#N)cc1 | 109 | 94.8 | 100 | 103 | 93.7 |  |  |  |  |  | 101 | 112 | 109 | 98.1 | 104 | 104 | 97.8 | 101 | 103 | 100 | 98.3 | 101 | 95.5 | 96.6 | 105 | > 10 |  | > 10 | > 10 | > 10 | 0 |  | 0 | 0 | 0 |
